Test results published in PubChem BioAssay (NCI).
Where “and” joins values, the source holds several entries; their conditions need not be identical. Identical values can stand only once.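 Briefly, cells in 96-well plates were exposed to five compound concentrations for 48 h, and endpoints were estimated by linear interpolation. The concentration for 50% growth inhibition is given as GI50. TGI marks complete inhibition of growth.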

What was measured:
Assay in all cases: growth of human tumour cells (NCI), 48 h
LOX IMVI melanoma = tested on: LOX IMVI melanoma
NCI-H460 lung = tested on: NCI-H460 lung
OVCAR-4 ovarian = tested on: OVCAR-4 ovarian
BT-549 breast = tested on: BT-549 breast
M14 melanoma = tested on: M14 melanoma
UO-31 renal = tested on: UO-31 renal
A549 NSCLC = tested on: A549 NSCLC
HT29 colon = tested on: HT29 colon
UACC-257 melanoma = tested on: UACC-257 melanoma
RXF 393 renal = tested on: RXF 393 renal

| Structure (SMILES) | GI50 (LOX IMVI melanoma) | TGI (LOX IMVI melanoma) | GI50 (NCI-H460 lung) | TGI (NCI-H460 lung) | GI50 (OVCAR-4 ovarian) | TGI (OVCAR-4 ovarian) | GI50 (BT-549 breast) | TGI (BT-549 breast) | GI50 (M14 melanoma) | TGI (M14 melanoma) | GI50 (UO-31 renal) | TGI (UO-31 renal) | GI50 (A549 NSCLC) [µM] | TGI (A549 NSCLC) | GI50 (HT29 colon) | TGI (HT29 colon) | GI50 (UACC-257 melanoma) | TGI (UACC-257 melanoma) [µM] | GI50 (RXF 393 renal) [µM] | TGI (RXF 393 renal) |
| --- | --- | --- | --- | --- | --- | --- | --- | --- | --- | --- | --- | --- | --- | --- | --- | --- | --- | --- | --- | --- |
| COc1ccc(/C=C\c2cc(OC)c(OC)c(OC)c2)cc1OCC(=O)Nc1nc2ccccc2s1 | 0.0808 µM | > 100 µM | 0.0476 µM | > 100 µM | 0.476 µM | > 100 µM | 0.303 µM | > 100 µM | 0.0527 µM | > 100 µM | 0.381 µM | > 100 µM | 0.31 | > 100 µM | 2.72 µM | > 48.9 µM | 11 µM | > 100 | 0.0503 | 79.9 µM |
| O=C1/C(=C/c2ccc(Cl)cc2)CN(C(=O)CCN2CCC(=NO)CC2)C/C1=C\c1ccc(Cl)cc1 | 0.224 µM | 0.57 µM | 0.888 µM | 2.73 µM | 0.834 µM | 2.39 µM | 1.47 µM | 2.85 µM | 0.754 µM | 2.3 µM | 1.01 µM | 2.3 µM | 1.65 | 3.77 µM | 0.338 µM | 1.31 µM | 1.67 µM | 3.43 | 1.46 | 2.87 µM |
| Nc1nccc2c1ccn2-c1cccc(NC(=O)c2ccc(N3CCOCC3)c(C(F)(F)F)c2)c1 | 0.997 µM | > 16.2 µM | 0.297 µM | 5.42 µM | 1.77 µM | > 36.1 µM | 1.04 µM | 5.5 µM | 0.788 µM | 7.6 µM | 1.2 µM | 14 µM | 0.922 | > 50 µM | 0.32 µM | 1.45 µM | 2.08 µM | 31.1 | 0.213 | 0.876 µM |
| c1ccc2cc(C[n+]3ccn(Cc4ccc5ccccc5n4)c3)ccc2c1 | 0.435 µM and 2.9 µM | 1.68 µM and 11.4 µM | 0.456 µM and 3.74 µM | 10.8 µM and 14.6 µM | 0.26 µM and 1.43 µM | 4.8 µM and 15.2 µM | 0.347 µM and 2.54 µM | 1.51 µM and 8.46 µM | 0.727 µM and 3.26 µM | 4.55 µM and 17.1 µM | 10.6 µM and 35.8 µM | 25.4 µM and > 100 µM | – | 14.1 µM and 24.2 µM | 0.366 µM and 2.55 µM | 3.01 µM and 14.3 µM | 0.28 µM and 2.7 µM | – | – | 3.23 µM and 19.7 µM |
| CC[C@H](C)[C@H](NC(=O)NC(C)(C)C)C(=O)N(C)[C@H](C[C@@H](OC(C)=O)c1nc(C(=O)N[C@@H](Cc2ccccc2)C[C@H](C)C(=O)OC)cs1)C(C)C | 0.768 µM | > 25 µM | 0.699 µM | > 13.7 µM | 1.21 µM | > 25 µM | 0.241 µM | 1.52 µM | 0.476 µM | 2.08 µM | 1.26 µM | > 25 µM | 1.15 | > 25 µM | 0.324 µM | > 8.91 µM | 4.67 µM | > 25 | 0.43 | > 20.3 µM |
| O=C(Cc1ccc(Nc2ccnc(C(F)(F)F)c2)cc1)Nc1cc(Cl)ccc1O | 6.46 µM | 28.5 µM | 6.92 µM | 27.9 µM | 9.48 µM | 84.2 µM | 4.07 µM | 22.5 µM | 12.3 µM | 33.6 µM | 2.84 µM | 18.2 µM | 15.3 | > 100 µM | 21.4 µM | 53.5 µM | 11.8 µM | 49.8 | 25 | 52.4 µM |
| O=C(c1ccco1)c1nc2cc(C(F)(F)F)ccc2[n+]([O-])c1C(F)(F)F | 40.1 µM | > 100 µM | 61 µM | > 100 µM | 17.9 µM | 55.2 µM | 63 µM | > 100 µM | 43.8 µM | > 100 µM | 58.8 µM | > 100 µM | > 100 | > 100 µM | 33.6 µM | > 100 µM | 69.8 µM | > 100 | 61.4 | > 100 µM |
| Oc1ccc(Oc2cnc3cc(Cl)ccc3n2)cc1 | 34.9 µM | > 100 µM | 20.1 µM | 53.1 µM | 28.2 µM | > 100 µM | 20.9 µM | > 100 µM | 46.5 µM | > 100 µM | 3.88 µM | 94 µM | 61.8 | > 100 µM | 51.7 µM | > 100 µM | 65.7 µM | > 100 | 46.6 | > 100 µM |
| O=C1NC(=O)[C@@H](c2c[nH]c3ccccc23)[C@@H]1c1c[nH]c2ccccc12 | > 25 µM | > 25 µM | > 25 µM | > 25 µM | > 25 µM | > 25 µM | > 25 µM | > 25 µM | > 25 µM | > 25 µM | > 16.4 µM | > 25 µM | > 25 | > 25 µM | > 25 µM | > 25 µM | > 25 µM | > 25 | > 25 | > 25 µM |
| CN(C)c1ccc2cc3ccc(N(C)C)cc3nc2c1 | – | 3.63 µM | – | 1.99 µM | – | 3.37 µM | – | 22.1 µM | – | 8.15 µM | – | 4.11 µM | – | 7.49 µM | – | 1.81 µM | – | 24.8 | – | 22.7 µM |
| Cc1ccc2nc3c(n2c1)C(=O)C(=O)c1ccccc1-3 | 0.132 µM | 0.276 µM | 0.173 µM | 0.718 µM | 0.21 µM | 0.537 µM | 0.168 µM | 0.307 µM | 0.183 µM | 0.34 µM | 0.194 µM | 1 µM | 0.199 | 0.62 µM | 1.74 µM | – | 0.146 µM | 0.382 | 0.227 | 10.2 µM |
